Laboratory results taken from patent publication US6579902B1, “Ribose-substituted aromatic amides, method for the production and use thereof as medicaments” (Aventis Pharma S.A., priority 1999, dated 2003).
≈ marks a conversion by molar mass, not a printed value.

Columns and labels:
Format in all cases: cell-based
Entero faecalis 02D2UC5 = test: MIC, method of dilutions in a liquid medium; conditions: incubation 24 hours at 37° C.
Procedure: (§1) A—Method of Dilutions in a Liquid Medium
(§2) A series of tubes was prepared in which the same quantity of sterile nutritive medium is distributed. Increasing quantities of the product to be studied are distributed in each tube, then each tube is seeded with a bacterial strain. After incubation for 24 hours in an oven at 37° C., the growth inhibition is evaluated by transillumination which allows the minimum inhibitory concentrations (M.I.C) to be determined, expressed in micrograms/cm^3.

Entero faecium 02D3IP2 = test: MIC, method of dilutions in a liquid medium; conditions: incubation 24 hours at 37° C.
Procedure: as §1, §2

[1] = system: Staph. Coag. Negative 012HT5; test: MIC, method of dilutions in a liquid medium; conditions: incubation 24 hours at 37° C.
Procedure: as §1, §2

Staph. aureus 011HT18 = test: MIC, method of dilutions in a liquid medium; conditions: incubation 24 hours at 37° C.
Procedure: as §1, §2

[2] = system: Staph. epidermidis 0126042; test: MIC, method of dilutions in a liquid medium; conditions: incubation 24 hours at 37° C.
Procedure: as §1, §2

[3] = system: Strepto pneumoniae 030BI2; test: MIC, method of dilutions in a liquid medium; conditions: incubation 24 hours at 37° C.
Procedure: as §1, §2

Strepto. pyogene 02A1UC1 = test: MIC, method of dilutions in a liquid medium; conditions: incubation 24 hours at 37° C.
Procedure: as §1, §2

bacterial strain = test: Activity in vitro, method of dilutions in a liquid medium (overall statement); conditions: summary of the MIC test on the listed strains
Procedure: as §1, §2

With `C#CCONC(=O)OC1CC(c2ccc3c(O)c(NC(=O)C(C)C)c(=O)oc3c2C)OC2(CCCC2)C1OC` (stereo not drawn) [EX. 11, [7R-(7.α.,8β.,9β.,10.α)]-(2-Propynyloxy)-carbamate of 7-[4-Hydroxy-8-methyl-3-[(2-methyl-1-oxo-propyl)amino]-2-oxo-2H-1-benzopyran-7-yl]-10-methoxy-6-oxaspiro[4,5]decan-9-yl] as the molecule, how does the MIC (Entero faecalis 02D2UC5) read?
The MIC was 0.63 µg/mL (≈ 1.16 µM).

What about the MIC (Entero faecium 02D3IP2) of the same molecule?
Its MIC is 0.32 µg/mL (≈ 0.59 µM).

What about the MIC [1] of the same molecule?
The MIC was 0.15 µg/mL (≈ 0.276 µM).

And the MIC (Staph. aureus 011HT18)?
Its MIC is “≦0.04 μg/ml”.

What about the MIC [2] of the same molecule?
The MIC was “≦0.04 μg/ml”.

And the MIC [3]?
The MIC was “≦0.04 μg/ml”.

What about the MIC (Strepto. pyogene 02A1UC1) of the same molecule?
Its MIC is 0.08 µg/mL (≈ 0.147 µM).

And the “activity in vitro (in words)” value (bacterial strain)?
The value was “excellent activity”.

What does the source list for `C#CCONC(=O)OC1C(O)C(c2ccc3c(O)c(NC(=O)c4ccccc4)c(=O)oc3c2C)OC2(CCCC2)C1OC` (stereo not drawn) [EX. 10, [7R-(7.α.,8.β,9.β,10.α)]-(2-Propynyloxy)-carbamate of 8-Hydroxy-7-[4-hydroxy-8-methyl-2-oxo-3-(benzoylamino)-2H-1-benzopyran-7-yl)-10-methoxy-6-oxaspiro[4,5]decan-9-yl]?
MIC (Entero faecalis 02D2UC5): 1.2 µg/mL (≈ 2.02 µM); MIC (Entero faecium 02D3IP2): 0.63 µg/mL (≈ 1.06 µM); MIC [1]: 0.08 µg/mL (≈ 0.135 µM); MIC (Staph. aureus 011HT18): ≦0.04 μg/ml; MIC [2]: ≦0.04 μg/ml; MIC [3]: ≦0.04 μg/ml; MIC (Strepto. pyogene 02A1UC1): 0.16 µg/mL (≈ 0.27 µM); activity in vitro (in words) (bacterial strain): excellent activity
